Measured values as given in patent US20220227789A1, “NOVEL INDOLIZINE-2-CARBOXAMIDES ACTIVE AGAINST THE HEPATITIS B VIRUS (HBV)” (AiCuris GmbH & Co. KG, priority 2019, published 2022).

Legend:
[1] = tested on: HBV; experiment: HBV replication assay: HBV DNA from the supernatants of HepAD38 cells; type: cell-based; conditions: Hepatitis B virus, 144 h, HBV DNA in supernatant by qPCR at day 6, read-out: Cell Activity
Method: Determination of HBV DNA from the Supernatants of HepAD38 Cells
The anti-HBV activity was analysed in the stable transfected cell line HepAD38, which has been described to secrete high levels of HBV virion particles (Ladner et al., 1997). In brief, HepAD38 cells were cultured at 37° C. at 5% CO2 and 95% humidity in 200 μl maintenance medium, which was Dulbecco's modified Eagle's medium/Nutrient Mixture F-12 (Gibco, Karlsruhe), 10% fetal bovine serum (PAN Biotech Aidenbach) supplemented with 50 μg/ml penicillin/streptomycin (Gibco, Karlsruhe), 2 mM L-glutamine (PAN Biotech, Aidenbach), 400 μg/ml G418 (AppliChem, Darmstadt) and 0.3 μg/ml tetracycline. Cells were subcultured once a week in a 1:5 ratio, but were usually not passaged more than ten times. For the assay 60,000 cells were seeded in maintenance medium without any tetracycline into each well of a 96-well plate and treated with serial half-log dilutions of test compound. To minimize edge effects the outer 36 wells of the plate were not used but were filled with assay medium. On each assay plate six wells for the virus control (untreated HepAD38 cells) and six wells for the cell control (HepAD38 cells treated with 0.3 μg/ml tetracycline) were allocated, respectively. In addition, one plate set with reference inhibitors like BAY 41-4109, entecavir, and lamivudine instead of screening compounds were prepared in each experiment. In general, experiments were performed thrice in triplicates. At day 6 HBV DNA from 100 μl filtrated cell culture supernatant (AcroPrep Advance 96 Filter Plate, […] Supor membran, PALL GmbH, Dreieich) was automatically purified on the MagNa Pure LC instrument using the MagNA Pure 96 DNA and Viral NA Small Volume Kit (Roche Diagnostics, Mannheim) according to the instructions of the manufacturer. EC50 values were calculated from relative copy numbers of HBV DNA In brief, 5 μl of the 100 μl eluate containing HBV DNA were subjected to PCR LC480 Probes Master Kit (Roche) together with 1 μM antisense primer […], 0.5 μM sense primer […], 0.3 μM hybprobes […]-FL and LC640-[…]-PH (TIBMolBiol, Berlin) to a final volume of […]. The PCR was performed on the Light Cycler 480 real time system (Roche Diagnostics, Mannheim) using the following protocol: Pre-incubation for 1 min at 95° C., amplification: 40 cycles×(10 sec at 95° C., 50 sec at 60° C., 1 sec at 70° C.), cooling for 10 sec at 40° C. Viral load was quantitated against known standards using HBV plasmid DNA of pCH-9/3091 (Nassal et al., 1990, Cell 63: 1357-1363) and the LightCycler 480 SW 1.5 software (Roche Diagnostics, Mannheim) and EC50 values were calculated using non-linear regression with GraphPad Prism 6 (GraphPad Software Inc., La Jolla, USA).

[2] = target: T1, HBV core protein (C-terminal truncated, 149 aa assembly domain) (Hepatitis B virus genotype D subtype adw, UniProt P03147, C107A/C48A/C61A); experiment: Biochemical capsid assembly assay (fluorescence quenching); conditions: BODIPY-FL labelled core protein, assembly started with NaCl, read after 6 min; read-out: Assembly Activity
T1 construct: The C-terminal truncated core protein containing 149 amino acids of the N-terminal assembly domain; made in house; host or cells: E. coli BL21 (DE3) Rosetta2, plasmid pET21b
T1 sequence (P03147 1-150, looked up, stated change not applied): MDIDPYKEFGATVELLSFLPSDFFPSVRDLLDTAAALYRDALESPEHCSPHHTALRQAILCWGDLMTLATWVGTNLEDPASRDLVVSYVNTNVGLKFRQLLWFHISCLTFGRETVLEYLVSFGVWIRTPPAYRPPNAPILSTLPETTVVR
Method: Biochemical Capsid Assembly Assay
The screening for assembly effector activity was done based on a fluorescence quenching assay published by Zlotnick et al. (2007). The C-terminal truncated core protein containing 149 amino acids of the N-terminal assembly domain fused to a unique cysteine residue at position 150 and was expressed in E. coli using the pET expression system (Merck Chemicals, Darmstadt). Purification of core dimer protein was performed using a sequence of size exclusion chromatography steps. In brief, the cell pellet from 1 L BL21 (DE3) Rosetta2 culture expressing the coding sequence of core protein cloned NdeI/XhoI into expression plasmid pET21b was treated for 1 h on ice with a native lysis buffer (Qproteome Bacterial Protein Prep Kit; Qiagen, Hilden). After a centrifugation step the supernatant was precipitated during 2 h stirring on ice with 0.23 g/ml of solid ammonium sulfate. Following further centrifugation the resulting pellet was resolved in buffer A (100 mM Tris, pH 7.5; 100 mM NaCl; 2 mM DTT) and was subsequently loaded onto a buffer A equilibrated CaptoCore 700 column (GE HealthCare, Frankfurt). The column flow through containing the assembled HBV capsid was dialyzed against buffer N (50 mM NaHCO3 pH 9.6; 5 mM DTT) before urea was added to a final concentration of 3M to dissociate the capsid into core dimers for 1.5 h on ice. The protein solution was then loaded onto a 1 L Sephacryl 5300 column. After elution with buffer N core dimer containing fractions were identified by SDS-PAGE and subsequently pooled and dialyzed against 50 mM HEPES pH 7.5; 5 mM DTT. To improve the assembly capacity of the purified core dimers a second round of assembly and disassembly starting with the addition of 5 M NaCl and including the size exclusion chromatography steps described above was performed. From the last chromatography step core dimer containing fractions were pooled and stored in aliquots at concentrations between 1.5 to 2.0 mg/ml at −80° C.
Immediately before labelling the core protein was reduced by adding freshly prepared DTT in a final concentration of 20 mM. After […] on ice storage buffer and DTT was removed using a Sephadex G-25 column (GE HealthCare, Frankfurt) and 50 mM HEPES, pH 7.5. For labelling 1.6 mg/ml core protein was incubated at 4° C. and darkness overnight with BODIPY-FL maleimide (Invitrogen, Karlsruhe) in a final concentration of 1 mM. After labelling the free dye was removed by an additional desalting step using a Sephadex G-25 column. Labelled core dimers were stored in aliquots at 4° C. In the dimeric state the fluorescence signal of the labelled core protein is high and is quenched during the assembly of the core dimers to high molecular capsid structures. The screening assay was performed in black 384 well microtiter plates in a total assay volume of 10 μl using 50 mM HEPES pH 7.5 and 1.0 to 2.0 μM labelled core protein. Each screening compound was added in 8 different concentrations using a 0.5 log-unit serial dilution starting at a final concentration of 100 μM, 31.6 μM or 10 μM, In any case the DMSO concentration over the entire microtiter plate was 0.5%. The assembly reaction was started by the injection of NaCl to a final concentration of […] which induces the assembly process to approximately 25% of the maximal quenched signal. 6 min after starting the reaction the fluorescence signal was measured using a Clariostar plate reader (BMG Labtech, Ortenberg) with an excitation of 477 nm and an emission of 525 nm. As 100% and 0% assembly control HEPES buffer containing 2.5 M and 0 M NaCl was used. Experiments were performed thrice in triplicates. EC50 values were calculated by non-linear regression analysis using the Graph Pad Prism 6 software (GraphPad Software, La Jolla, USA).

| SMILES | EC50 [1] | IC50 [2] |
| --- | --- | --- |
| CC1Cc2[nH]nc(-c3cscn3)c2CN1C(=O)c1cc2ccc(Cl)cn2c1 (stereo not shown) [Example 21, 6-chloro-2-[6-methyl-3-(1,3-thiazol-4-yl)-1H,4H,5H,6H,7H-pyrazolo[4,3-c]pyridine-5-carbonyl]indolizine] | < 1 µM | 5 to 10 µM |
| CC1Cc2[nH]nc(-c3cscn3)c2CN1C(=O)c1cc2cc(Cl)c(F)cn2c1 (stereo not shown) [Example 22, 7-chloro-6-fluoro-2-[6-methyl-3-(1,3-thiazol-4-yl)-1H,4H,5H,6H,7H-pyrazolo[4,3-c]pyridine-5-carbonyl]indolizine] | < 1 µM | 5 to 10 µM |
| CC1Cc2[nH]nc(-c3cscn3)c2CN1C(=O)c1cc2ccc(F)cn2c1 (stereo not shown) [Example 23, 6-fluoro-2-[6-methyl-3-(1,3-thiazol-4-yl)-1H,4H,5H,6H,7H-pyrazolo[4,3-c]pyridine-5-carbonyl]indolizine] | < 1 µM | < 5 µM |
| CC1Cc2[nH]nc(-c3cscn3)c2CN1C(=O)c1cc2c(F)cccn2c1 (stereo not shown) [Example 24, 8-fluoro-2-[6-methyl-3-(1,3-thiazol-4-yl)-1H,4H,5H,6H,7H-pyrazolo[4,3-c]pyridine-5-carbonyl]indolizine] | < 1 µM | < 5 µM |
| CC1Cc2[nH]nc(-c3cscn3)c2CN1C(=O)c1cc2c(C(F)(F)F)cccn2c1 (stereo not shown) [Example 25, 2-[6-methyl-3-(1,3-thiazol-4-yl)-1H,4H,5H,6H,7H-pyrazolo[4,3-c]pyridine-5-carbonyl]-8-(trifluoromethyl)indolizine] | < 1 µM | 5 to 10 µM |
| CC1Cc2[nH]nc(-c3cscn3)c2CN1C(=O)c1cc2ccccn2c1 (stereo not shown) [Example 26, 2-[6-methyl-3-(1,3-thiazol-4-yl)-1H,4H,5H,6H,7H-pyrazolo[4,3-c]pyridine-5-carbonyl]indolizine] | < 1 µM | < 5 µM |
| CC(NC(=O)c1noc2c1CN(C(=O)c1cc3ccccn3c1)CC2)C(F)(F)F (stereo not shown) [Example 51, 5-(indolizine-2-carbonyl)-N-(1,1,1-trifluoropropan-2-yl)-4H,5H,6H,7H-[1,2]oxazolo[4,5-c]pyridine-3-carboxamide] | < 1 µM | < 5 µM |
| CC(NC(=O)c1onc2c1CN(C(=O)c1cc3ccccn3c1)CC2)C(F)(F)F (stereo not shown) [Example 53, 5-(indolizine-2-carbonyl)-N-(1,1,1-trifluoropropan-2-yl)-4H,5H,6H,7H-[1,2]oxazolo[4,3-c]pyridine-3-carboxamide] | < 1 µM | < 5 µM |
